This assay concerns HUVEC. In words: Human Umbilical Vein Endothelial Cell (HUVEC) proliferation assay (BrdU incorporation). In kind it is cell-based. The note with it: VEGF-stimulated HUVEC, 72 hrs, read-out: Inhibition of HUVEC proliferation IC50. On the procedure: Human Umbilical Vein Endothelial Cell (HUVEC) Proliferation Assay (BrdU Incorporation) Materials
HUVEC cells and EGM-MV (Endothelial cell growth medium—microvascular) were purchased from Clonetics (San Diego, Calif.). VEGF and bFGF were purchased from R&D Systems (Minneapolis, Minn.). Anti-BrdU antibody was obtained from Chemicon International (Temecula, Calif.).
HUVECs were routinely maintained in EGM-MV medium and were used within passage 7. HUVECs were plated at a density of 2500 cells/well in M199 medium containing 5% FBS (Hyclone) in type I collagen coated plate (Becton Dickinson). The plate was incubated at 37° C. overnight. The medium was removed by aspiration, and test compounds were added to each well in a volume of 0.1 ml/well in serum-free M199 medium. Compound concentrations ranged from 1.5 nM to 30 micromolar. The plate was incubated for 30 min at 37° C. Another 0.1 ml of serum-free M199 medium containing BSA and VEGF (or bFGF) was added to give a final concentration of 0.1% BSA and 10 ng/ml VEGF (0.3 ng/ml bFGF). The plate was incubated at 37° C. for 72 hrs. BrdU was added to each well after the first 48 hrs to give a concentration of 10 micromolar. The calorimetric ELISA assay was performed according to manufacturer's (Roche Molecular Sciences) instructions, with detection by absorbance reading at 450 nm. Results were plotted as concentration of test compound vs. absorbance to give an IC50 value for inhibition of BrdU incorporation.
On the technique in general: Dividing cells build labelled thymidine or BrdU into new DNA.

As to `Cc1cc(S(N)(=O)=O)ccc1Nc1nccc(N(C)c2ccc3c(C)n[nH]c3c2)n1` [Example 63, 3-methyl-4-({4-[methyl(3-methyl-1H-indazol-6-yl)amino]-2-pyrimidinyl}amino)benzenesulfonamide], the IC50 fell in the range of 201 to 500 nM.

`Cc1ccc(Nc2nccc(N(C)c3ccc4c(C)n[nH]c4c3)n2)cc1S(N)(=O)=O` [Example 64, 2-methyl-5-({4-[methyl(3-methyl-1H-indazol-6-yl)amino]-2-pyrimidinyl}amino)benzenesulfonamide]: the IC50 fell in the range of 1 to 200 nM.

In the case of `Cc1ccc(S(N)(=O)=O)cc1Nc1nccc(N(C)c2ccc3c(C)n[nH]c3c2)n1` [Example 65, 4-methyl-3-({4-[methyl(3-methyl-1H-indazol-6-yl)amino]-2-pyrimidinyl}amino)benzenesulfonamide], the IC50 lay in the range of 1 to 200 nM.

`Cc1n[nH]c2cc(N(C)c3ccnc(Nc4cccc([S+](C)[O-])c4)n3)ccc12` (centres unmarked) [Example 66, N^4-methyl-N^4-(3-methyl-1H-indazol-6-yl)-N^2-[3-(methylsulfinyl)phenyl]-2,4-pyrimidinediamine]: the IC50 lay in the range of 1 to 200 nM.

`Cc1n[nH]c2cc(N(C)c3ccnc(Nc4cc(S(C)(=O)=O)ccc4F)n3)ccc12` [Example 67, N^2-[2-fluoro-5-(methylsulfonyl)phenyl]-N^4-methyl-N^4-(3-methyl-1H-indazol-6-yl)-2,4-pyrimidinediamine]: the IC50 was in the range of 201 to 500 nM.

For `COc1ccc(S(C)(=O)=O)cc1Nc1nccc(N(C)c2ccc3c(C)n[nH]c3c2)n1` [Example 68, N^2-[2-methoxy-5-(methylsulfonyl)phenyl]-N^4-methyl-N^4-(3-methyl-1H-indazol-6-yl)-2,4-pyrimidinediamine], the IC50 lay within 1 to 200 nM.

In the case of `Cc1ccc(Nc2nccc(N(C)c3ccc4c(C)n(C)nc4c3)n2)cc1S(N)(=O)=O` [Example 69, 5-({4-[(2,3-dimethyl-2H-indazol-6-yl)(methyl)amino]pyrimidin-2-yl}amino)-2-methylbenzenesulfonamide], the IC50 is 1 to 200 nM.

For `Cc1c2ccc(N(C)c3ccnc(Nc4cccc(S(N)(=O)=O)c4)n3)cc2nn1C` [Example 70, 3-({4-[(2,3-dimethyl-2H-indazol-6-yl)(methyl)amino]pyrimidin-2-yl}amino)benzenesulfonamide], the IC50 lay within 1 to 200 nM.

In the case of `Cc1c2ccc(N(C)c3ccnc(Nc4ccc(CCS(N)(=O)=O)cc4)n3)cc2nn1C` [Example 71, 2-[4-({4-[(2,3-dimethyl-2H-indazol-6-yl)(methyl)amino]pyrimidin-2-yl}amino)phenyl]ethanesulfonamide], the IC50 is 1 to 200 nM.

With `Cc1c2ccc(N(C)c3ccnc(Nc4ccc(CS(C)(=O)=O)cc4)n3)cc2nn1C` [Example 72, N^4-(2,3-dimethyl-2H-indazol-6-yl)-N^4-methyl-N^2-{4-[(methylsulfonyl)methyl]phenyl}pyrimidine-2,4-diamine], the IC50 lay within 1 to 200 nM.

Consider `CN(c1ccc2c(CO)n(C)nc2c1)c1ccnc(Nc2cccc(S(N)(=O)=O)c2)n1` [Example 73, 3-({4-[[3-(hydroxymethyl)-2-methyl-2H-indazol-6-yl](methyl)amino]pyrimidin-2-yl}amino)benzenesulfonamide], for which the IC50 fell in the range of 1 to 200 nM.

As to `Cc1nc2cc(N(C)c3ccnc(Nc4cccc(S(N)(=O)=O)c4)n3)ccc2n1C` [Example 74, 3-({4-[(1,2-dimethyl-1H-benzimidazol-5-yl)(methyl)amino]pyrimidin-2-yl}amino)benzenesulfonamide], the IC50 was 1 to 200 nM.

On to `CN(c1ccc2c(c1)nc(Cc1ccccc1)n2C)c1ccnc(Nc2cccc(S(N)(=O)=O)c2)n1` [Example 75, 3-({4-[(2-benzyl-1-methyl-1H-benzimidazol-5-yl)(methyl)amino]pyrimidin-2-yl}amino)benzenesulfonamide], for which the IC50 was 1 to 200 nM.

For `CCn1nc2cc(N(C)c3ccnc(Nc4cccc(S(N)(=O)=O)c4)n3)ccc2c1C` [Example 76, 3-({4-[(2-ethyl-3-methyl-2H-indazol-6-yl)(methyl)amino]pyrimidin-2-yl}amino)benzenesulfonamide], the IC50 was in the range of 1 to 200 nM.

As for `Cc1c2ccc(N(C)c3ccnc(Nc4cccc(S(N)(=O)=O)c4)n3)cc2nn1Cc1cccc(Cl)c1` [Example 77, 3-({4-[[2-(3-chlorobenzyl)-3-methyl-2H-indazol-6-yl](methyl)amino]pyrimidin-2-yl}amino)benzenesulfonamide], the IC50 fell in the range of 1 to 200 nM.

Consider `Cc1c2ccc(N(C)c3ncnc(Nc4cccc(S(N)(=O)=O)c4)n3)cc2nn1C` [Example 78, 3-({4-[(2,3-dimethyl-2H-indazol-6-yl)(methyl)amino]-1,3,5-triazin-2-yl}amino)benzenesulfonamide], for which the IC50 is 1 to 200 nM.

Take `Cc1ccc(Nc2ncnc(N(C)c3ccc4c(C)n(C)nc4c3)n2)cc1S(N)(=O)=O` [Example 79, 5-({4-[(2,3-dimethyl-2H-indazol-6-yl)(methyl)amino]-1,3,5-triazin-2-yl}amino)-2-methylbenzenesulfonamide]: the IC50 lay in the range of 201 to 500 nM.

The values above are taken from patent US8114885B2, “Chemical compounds” (GlaxoSmithKline LLC, priority 2000, dated 2012).
